From patent US20140235518A1, “AQUEOUS LIQUIDS CONTAINING AN ORGANIC COMPOUND AND AN N-(2-HYDROXYALKYL) SUBSTITUTED N-ALKYLAMINE” (TAMINCO, priority 2011, published 2014)

Tests used:
[1] = test system: microorganisms in challenged metalworking fluids; assay: Challenge with amines as sole biostabilizing agent (HMB-IV catalase/oxygen pressure CFU); format: cell-based; conditions: formula with 4.97% amine at 4% aqueous dilution; for CFU one hour after first challenge: CFU/ml
Description: (§1) The biostability of three fluids containing different amines was assessed in a challenge test format. The three amines used were DCHA (dicyclohexylamine), DBAE (dibutylaminoethanol) and HBHEBA (hydroxybutyl hydroxyethyl butylamine). The test solutions were approximately 100 ml in volume and maintained at RT. The following formula was used at 4% aqueous dilution for testing:
The 100 ml test solutions were initially challenged with 10 ml of a lab maintained rancid soluble oil containing 50% tramp oil with an overall biological count of 8,800,000 CFU/ml. The degree of biological growth throughout the experiment was measured by the HMB-IV (Biotech International, Needville, Tex.) method for determination of the aerobic and facultative biological activity within a liquid metalworking fluid sample. This test method is based on the principle that most of the microorganisms in challenged metalworking fluids produce catalase while they are active. […] A calibrated device is used to measure the amount of oxygen that is produced via the change in the pressure of the headspace within a test tube over a period of 15 minutes.
(§2) The second challenge at 3 days was 20 ml of a rancid semi-synthetic coolant with a CFU/ml reading of 10,000,000. A volume of 20 ml was necessary to bring the volume back to the original 100 ml (each CFU/ml measurement removes 10 ml of coolant). The third challenge at 10 days was an additional 20 ml of the 10,000,000 CFU/ml rancid semi-synthetic coolant.

[2] = Condition of challenged test solutions (pH, putrification odor, appearance); conditions: formula with 4.97% amine at 4% aqueous dilution
Description: as §1, §2

[3] = test system: microbial population of spoiled coolant; assay: Biostability comparison, soluble oil emulsion diluted in spoiled coolant (CFU by oxygen pressure); format: cell-based; conditions: diluted 20 to 1 in spoiled coolant water
Description: The 100 ml test solutions were initially challenged with 10 ml of a lab maintained rancid soluble oil containing 50% tramp oil with an overall biological count of 8,800,000 CFU/ml. The degree of biological growth throughout the experiment was measured by the HMB-IV (Biotech International, Needville, Tex.) method for determination of the aerobic and facultative biological activity within a liquid metalworking fluid sample. This test method is based on the principle that most of the microorganisms in challenged metalworking fluids produce catalase while they are active. The addition of a known amount of a formulated HMB-IV oxidizing agent (hydrogen peroxide, buffer and chelating chemicals) to a standard volume of the sample fluid in a sealed test tube allows for an amount of oxygen proportional to the amount of active bacteria to be produced via the chemical reaction between active catalase enzyme and the hydrogen peroxide. A calibrated device is used to measure the amount of oxygen that is produced via the change in the pressure of the headspace within a test tube over a period of 15 minutes.
A challenge test comparison of the following soluble oil emulsion was carried out over several days.
The above concentrate formula was used with either 3 or 5 parts of one of the test amines. The soluble oil concentrate was diluted 20 to 1 in stagnant water made up from spoiled coolant (cultured from an original stock of rancid metalworking coolant used in a ferrous alloy cutting operation) which was in turn prepared by diluting 10% of a 60,000,000 CFU per ml of stock spoiled coolant with 90% tap water that had been allowed to air out for 24 hours. The challenge solution, which in this experiment is a control, was calculated to initially contain 6,000,000 CFU per ml microbial population. By the next day, the microbial content of the challenge solution had increased to 13,000,000 CFU per ml. By the end of the trial, the microbial content of the challenge solution had declined to 7,400,000 CFU. The concentration of microbes was determined by oxygen pressure development as described in Example 4.

[4] = Interfacial tension by drop weight measurements; format: physicochemical; conditions: 22° C.
Description: Drop weight measurements (i.e., the weight of a drop of one fluid as it is carefully released into another immiscible fluid) were used to evaluate the air/liquid and liquid/liquid interfacial tensions of 5% BDEA(aq) (butyldiethanolamine with C/OH ratio of 4), 5% HBHEEA(aq) (hydroxybutyl hydroxyethyl ethylamine with C/OH ratio of 4) and 2% HBHEBA(aq) (hydroxybutyl hydroxyethyl butylamine with C/OH ratio of 5) solutions at RT (22° C.). Note that a solution of 2% wt/wt of HBHEBA in water takes several minutes to form. About 1% wt/wt of HBHEBA dissolves in water fairly rapidly with stirring, while up to approximately 3% wt/wt can eventually be dissolved if stirring is continued for a longer period of time. The following relationship (oftentimes referred to as Tate's law) is used to relate drop weight to the interfacial tension between the drop fluid and the fluid being “dropped” into:
γ=mactual(1−ρfluid/ρdrop)g/(2πr)
Drop weights were taken 10 at a time and averaged. Three replicates of the drop average were taken to insure accuracy. […] The Table below contains drop weight data of some aqueous AAA solutions as dropped into air and into decane (ρ=0.73 g/ml):
The data for DI water dropped into air is used to standardize the pipette. The surface tension of water/air at 22° C. and 1 bar absolute P is 72 dynes/cm.
Using this value in the equation for DI water gives an orifice radius of 1.2 mm (0.12 cm). All of the measurements were carried out with the same pipette. Using the value of 1.2 mm as the radius of the pipette orifice allows for accurate calculation of the unknown interfacial tensions. Both BDEA and HBHEEA have the same MW and the same total C/OH ratio of 4, but both molecules display distinct interfacial tension properties. […] AAA's of identical total C/OH ratio and identical MW but with differing distribution of hydrophobic and hydrophilic regions display unique properties with respect to solubility, viscosity, volatility, impact on emulsion stability, and assistance to biostability.

[5] = Dissolution of HBHEBA in water; format: physicochemical; conditions: RT
Description: Drop weight measurements (i.e., the weight of a drop of one fluid as it is carefully released into another immiscible fluid) were used to evaluate the air/liquid and liquid/liquid interfacial tensions of 5% BDEA(aq) (butyldiethanolamine with C/OH ratio of 4), 5% HBHEEA(aq) (hydroxybutyl hydroxyethyl ethylamine with C/OH ratio of 4) and 2% HBHEBA(aq) (hydroxybutyl hydroxyethyl butylamine with C/OH ratio of 5) solutions at RT (22° C.). Note that a solution of 2% wt/wt of HBHEBA in water takes several minutes to form. About 1% wt/wt of HBHEBA dissolves in water fairly rapidly with stirring, while up to approximately 3% wt/wt can eventually be dissolved if stirring is continued for a longer period of time. The following relationship (oftentimes referred to as Tate's law) is used to relate drop weight to the interfacial tension between the drop fluid and the fluid being “dropped” into: […]

[6] = Comparative emulsion stability (p-terphenyl oil / 20% aqueous AAA); format: physicochemical; conditions: 10 g p-terphenyl oil + 10 g 20% wt/wt aqueous AAA, 10 s vortex
Text: The emulsion prepared with aqueous N-butyldiethanolamine (BDEA, C/OH ratio=4) was compared to an otherwise identical emulsion prepared with 20% aqueous N-(2-hydroxybutyl)-N-(2-hydroxyethyl)-N-ethylamine (HBHEEA, C/OH ratio=4).

[7] = AAA @ 3% in concentrate (1500 ppm diluted)
[8] = AAA @ 5% in concentrate (2500 ppm diluted)
[9] = 5% (aq) solution dropped into Air
[10] = 5% (aq) solution dropped into Decane

SMILES | CFU @ 3 days (2nd challenge) [1] | CFU @ 7 days (4 days after 2nd challenge) [1] | CFU @ 10 days (3rd challenge) [1] | CFU @ 14 days (4 days after 3rd challenge) [1] | CFU @ 25 days (7 days after fresh dilution) [1] | CFU @ 90 days (60 day idle period simulation) [1] | CFU one hour after first challenge [1] | pH of test solution @ 25 days [2] | pH of test solution @ 90 days [2] | pH of test solution after first challenge [2] | CFU per ml after 1 day [3, 7] [CFU per ml × 10^6] | CFU per ml after 4 days [3, 7] [CFU per ml × 10^6] | CFU per ml after 1 day [3, 8] [CFU per ml × 10^6] | CFU per ml after 4 days [3, 8] [CFU per ml × 10^6] | γ Drop to Fluid (air/liquid interfacial tension) [4, 9] [dynes/cm] | γ Drop to Fluid (liquid/liquid interfacial tension) [4, 10] [dynes/cm] | further results
CCCCN(CCO)CC(O)CC (stereo not shown) [HBHEBA, N-(2-hydroxybutyl)-N-(2-hydroxyethyl)-N-butylamine] | 140,000 CFU | 3,300,000 CFU | 4,500,000 CFU | 2,900,000 CFU | 1,700,000 CFU | 7,700,000 CFU | 610,000 CFU | 8.2 | 7.6 | 9.1 | 7.3 | 5.0 | 3.0 | 1.2 | – | – | γ Drop to Fluid (air/liquid interfacial tension) ([4]; 2% (aq) solution dropped into Air): 34 dynes/cm; γ Drop to Fluid (liquid/liquid interfacial tension) ([4]; 2% (aq) solution dropped into Decane): 8 dynes/cm; Amount that can eventually be dissolved in water ([5]; stirring continued for a longer period of time): approximately 3 % wt/wt; Amount dissolving in water fairly rapidly ([5]; with stirring): About 1 % wt/wt
C1CCC(NC2CCCCC2)CC1 [DCHA, dicyclohexylamine] | 410,000 CFU | 3,000,000 CFU | 3,900,000 CFU | 3,900,000 CFU | 4,000,000 CFU | 33,000,000 CFU | 630,000 CFU | 8.2 | 7.7 | 9.1 | – | – | – | – | – | – | –
CCCCN(CCO)CCCC [DBAE, N,N-dibutylaminoethanol] | 310,000 CFU | 2,100,000 CFU | 4,000,000 CFU | 2,500,000 CFU | 2,900,000 CFU | 8,100,000 CFU | 740,000 CFU | 8.2 | 7.7 | 9.4 | – | – | – | – | – | – | –
CCC(O)CN(CC)CCO (stereo not shown) [HBHEEA, N-(2-hydroxybutyl)-N-(2-hydroxyethyl)-ethylamine] | – | – | – | – | – | – | – | – | – | – | – | – | – | – | 37 | 17 | Emulsion stability (visual) [6]: remained completely opaque with no visible signs of coalescence for several hours
CCCCN(CCO)CCO [BDEA, N-butyldiethanolamine] | – | – | – | – | – | – | – | – | – | – | 11 | 9.0 | 3.5 | 2.1 | 41 | 13 | Time to complete phase separation of emulsion [6]: ≤ 30 min; Time to significant oil coalescence of emulsion [6]: ≤ 15 min
